What was measured:
Format in all cases: in vivo, rat
DA = DA content in brain tissue by HPLC-EC in bone cancer pain rats; conditions: for DA content in the brain tissue: after 15 days of administration
Procedure: (§1) 60 SD rats were randomly selected, and after anesthesia, a small 1 cm incision was made in the upper tibial skin. A 10 mL syringe needle was used to puncture and perforate, then a 10 μL syringe was inserted into the bone marrow cavity, and 3 μL cell suspension containing […] Walker rat breast cancer cells was slowly injected. The pinhole was sealed with bone wax, and the skin was sutured. After surgery, the rats were placed on a 37° C. hot plate for rewarming. After recovery, rats were returned to the cage for further breeding, to obtain the model group. In addition, 8 SD rats were randomly selected, and an equal volume of PBS solution was injected into the marrow cavity of the left upper tibia. The rest of the operations were the same as the model group, to obtain the sham operation group. The rats that had been successfully modeled were randomly divided into groups, eight rats for each group, that included high-dose chlorogenic acid group (80 mg/kg), middle-dose chlorogenic acid group (40 mg/kg), low-dose chlorogenic acid group (20 mg/kg), model negative group (N.S normal saline), and sham operation group (N.S normal saline). The rats were intraperitoneally injected with drugs for 15 days in a volume of 0.2 mL/10 g, once a day; the model-negative group and the sham operation group were given the same volume of normal saline. After the rats were sacrificed, the hypothalamus was quickly separated, homogenized in an ice bath with perchloric acid, and centrifuged. The supernatant was collected, and the contents of NE, DA, and 5-HT were determined by HPLC-EC method (Hou […], Wang Na, et al, Effects of progesterone on morphine-induced conditioned place preference and levels of monoamine transmitters in rat brain. Chinese Journal of Pharmacology, 2006, 22(8), 980-983).

IL-1β = assay: Serum IL-1β content by ELISA in bone cancer pain rats; conditions: for Cytokines IL-1β content in serum: after 15 days of administration; for Serum level of IL-1β compared with the model-negative group: after 15 days
Procedure: 60 SD rats were randomly selected, and after anesthesia, a small 1 cm incision was made in the upper tibial skin. A 10 mL syringe needle was used to puncture and perforate, then a 10 μL syringe was inserted into the bone marrow cavity, and 3 μL cell suspension containing 3×10^3 Walker rat breast cancer cells was slowly injected. The pinhole was sealed with bone wax, and the skin was sutured. After surgery, the rats were placed on a 37° C. hot plate for rewarming. After recovery, rats were returned to the cage for further breeding, to obtain the model group. In addition, 8 SD rats were randomly selected, and an equal volume of PBS solution was injected into the marrow cavity of the left upper tibia. The rest of the operations were the same as the model group, to obtain the sham operation group. The rats that had been successfully modeled were randomly divided into groups, eight rats for each group, that included high-dose chlorogenic acid group (80 mg/kg), middle-dose chlorogenic acid group (40 mg/kg), low-dose chlorogenic acid group (20 mg/kg), model negative group (N.S normal saline), and sham operation group (N.S normal saline). The rats were intraperitoneally injected with drugs for 15 days in a volume of 0.2 mL/10 g, once a day; the model-negative group and the sham operation group were given the same volume of normal saline. After the last administration, blood was collected from the eyeballs of the rats, and the animals in each group were sacrificed by neck removal. The blood samples were allowed to stand at room temperature for 20 minutes and then centrifuged. The supernatant was collected and the contents of TNF-α, IL-1β, and IL-6 in the peripheral blood serum of the […] were determined by ELISA.

5-HT = 5-HT content in brain tissue by HPLC-EC in bone cancer pain rats; conditions: for 5-HT content in the brain tissue: after 15 days of administration
Procedure: as §1

O=C(/C=C/c1ccc(O)c(O)c1)O[C@@H]1C[C@](O)(C(=O)O)C[C@@H](O)[C@H]1O [Chlorogenic acid]
DA content in the brain tissue (DA; 20 mg/kg ip once a day): 1.38 ± 0.21 nmol/g | DA content in brain tissue compared with the model-negative group (DA; 20 mg/kg, p<0.05): the difference was significant | DA content in the brain tissue (DA; 40 mg/kg ip once a day): 1.46 ± 0.08 nmol/g | DA content in brain tissue compared with the model-negative group (DA; 40 mg/kg, p<0.05): the difference was significant | DA content in the brain tissue (DA; 80 mg/kg ip once a day): 1.15 ± 0.12 nmol/g | DA content in brain tissue compared with the model-negative group (DA; 80 mg/kg, p>0.05): no significant difference | Cytokines IL-1β content in serum (IL-1β; 20 mg/kg ip once a day): 58.54 ± 8.23 ng/L | Serum level of IL-1β compared with the model-negative group (IL-1β; 20 mg/kg, p<0.05): lower than those in the model-negative group | Cytokines IL-1β content in serum (IL-1β; 40 mg/kg ip once a day): 52.71 ± 6.39 ng/L | Serum level of IL-1β compared with the model-negative group (IL-1β; 40 mg/kg, p<0.05): lower than those in the model-negative group | Cytokines IL-1β content in serum (IL-1β; 80 mg/kg ip once a day): 76.25 ± 4.62 ng/L | Serum level of IL-1β compared with the model-negative group (IL-1β; 80 mg/kg): the difference was not significant | 5-HT content in the brain tissue (5-HT; 20 mg/kg ip once a day): 0.91 ± 0.15 nmol/g | 5-HT content in brain tissue compared with the model-negative group (5-HT; 20 mg/kg, p<0.05): the difference was significant | 5-HT content in the brain tissue (5-HT; 40 mg/kg ip once a day): 0.95 ± 0.19 nmol/g | 5-HT content in brain tissue compared with the model-negative group (5-HT; 40 mg/kg, p<0.05): the difference was significant | 5-HT content in the brain tissue (5-HT; 80 mg/kg ip once a day): 0.77 ± 0.11 nmol/g | 5-HT content in brain tissue compared with the model-negative group (5-HT; 80 mg/kg, p>0.05): no significant difference

Reference: US20250205186A1, “USE OF CHLOROGENIC ACID IN PREPARING MEDICINE OR PHARMACEUTICAL COMPOSITION FOR PREVENTING OR TREATING PAIN” (SICHUAN JIUZHANG BIOLOGICAL SCIENCE AND TECHNOLOGY CO., LTD., priority 2019, published 2025)
